Results: US11896010B2, “Uracil compound and use thereof” (Sumitomo Chemical Company, Limited, priority 2018, dated 2024)

Columns and labels:
Assay type in all cases: in vivo
Amaranthus retroflexus = test: Test Example 1: post-emergence foliage spray pot test in greenhouse, weed control efficacy; conditions: for weed control efficacy score (0 to 100), Amaranthus retroflexus: foliar spray 204 L/ha on plants grown 15 days, evaluated after 11 days, 0 = same as untreated, 100 = completely dead; for weed control efficacies against Amaranthus retroflexus (in words): summary of the test at 80 and 40 gai/ha
Experimental: (§1) Next, weed control efficacies of the Compound A and safety (phytotoxicity) of the Compound A against a useful plant are shown by a Test Example.
(§2) Here the “untreated group” represents a group where the same treatment procedure as that of the treated group except not using the Compound A is done.
(§3) A plastic pot was filled with soil, thereto Amaranthus retroflexus, Ipomoea hederacea, and corn were seeded, and they were grown in a greenhouse for 15 days. Separately, a prescribed amount of a formulation prepared according to the process described in the Formulation Example 1 was diluted with water comprising 1% of Agridex (registered trademark) to obtain a diluent. Said diluent was homogeneously sprayed from above of said plants in a ratio of 204 L/ha such that the applied amount of the Compound A was 80 gai/ha or 40 gai/ha. Then, said plants were grown in a greenhouse for 11 days and evaluated according to the above criteria.
(§4) The Compound B was used instead of the Compound A to carry out the same test as the Test Example 1.

Ipomoea hederacea = test: as above; conditions: for weed control efficacy score (0 to 100), Ipomoea hederacea: foliar spray 204 L/ha on plants grown 15 days, evaluated after 11 days, 0 = same as untreated, 100 = completely dead; for weed control efficacies against Ipomoea hederacea (in words): summary of the test at 80 and 40 gai/ha
Experimental: as §1, §2, §3, §4

corn = test: Test Example 1: post-emergence foliage spray pot test in greenhouse, safety (phytotoxicity) against a useful plant; conditions: for phytotoxicity score (0 to 100), corn: foliar spray 204 L/ha on plants grown 15 days, evaluated after 11 days, 0 = same as untreated, 100 = completely dead
Experimental: as §1, §2, §3, §4

SMILES	weed control efficacy score (0 to 100), Amaranthus retroflexus (Amaranthus retroflexus; applied amount 40 gai/ha)	weed control efficacy score (0 to 100), Amaranthus retroflexus (Amaranthus retroflexus; applied amount 80 gai/ha)	weed control efficacies against Amaranthus retroflexus (in words) (Amaranthus retroflexus)	weed control efficacy score (0 to 100), Ipomoea hederacea (Ipomoea hederacea; applied amount 40 gai/ha)	weed control efficacy score (0 to 100), Ipomoea hederacea (Ipomoea hederacea; applied amount 80 gai/ha)	weed control efficacies against Ipomoea hederacea (in words) (Ipomoea hederacea)	phytotoxicity score (0 to 100), corn (corn; applied amount 40 gai/ha)	phytotoxicity score (0 to 100), corn (corn; applied amount 80 gai/ha)	phytotoxicity against corn (in words) (corn; summary of the test at 80 and 40 gai/ha)	phytotoxicity against corn (in words) (corn; in vivo)
CCOC(=O)COc1ncccc1Oc1cc(-n2c(=O)cc(C(F)(F)F)n(C)c2=O)c(F)cc1Cl [Compound B]	100	100	high weed control efficacies	100	100	high weed control efficacies	100	100	high phytotoxicity	
CCOC(=O)COc1nc(-n2c(=O)cc(C(F)(F)F)n(C)c2=O)ccc1Oc1cc(-n2c(=O)cc(C(F)(F)F)n(C)c2=O)c(F)cc1Cl [Compound A]	100	100	high weed control efficacies	95	100	high weed control efficacies				low phytotoxicity
